Test results published in PMC8196580, “Identification of Kaurane-Type Diterpenes as Inhibitors of Leishmania Pteridine Reductase I” (Molecules, 2021).
Where two headings read alike, the source gives them in different places.

Key:
[1] = system: L. major; assay: ChEMBL dataset of pIC50 values against L. major used for the RF model (Table S1); format: cell-based, Leishmania major; further: call rule not given here
[2] = system: L. major; set-up: method as in ChEMBL; settings: ref ChEMBL, cited from earlier work
[3] = Active/Inactive class assigned to the ChEMBL pIC50 value for Random forest model construction, ref ChEMBL
[4] = ChemBL structures with pIC50 values used for Random forest model construction, L. major
[5] = Active/Inactive class assigned to ChemBL structures for Random forest model construction (Table S1)
[6] = ChemBL structures with pIC50 values used for Random forest model construction (Table S1)

| SMILES | Outcome [1, 3] | pIC50 Value [2, 4] | Outcome [1, 5] | pIC50 Value [2, 6] |
| --- | --- | --- | --- | --- |
| COc1cc(OC)c2c(C)[n+](-c3ccc(O)cc3)c(C)cc2c1.O=C([O-])C(F)(F)F [CHEMBL480760] | Inactive | 4.80 |  |  |
| O=[N+]([O-])c1ccc2ncnc(Nc3ccc(Br)cc3)c2c1 [CHEMBL3760107] | Inactive | 4.21 |  |  |
| COc1ccc(/C=C/C(=O)c2ccccc2O)c(OC)c1 [CHEMBL143265] |  |  | Active | 5.34 |
| C[C@H]1COC2=C1C(=O)C(=O)c1c2ccc2c1[C@H](O)CCC2(C)C [CHEMBL485279] | Inactive | 4.33 |  |  |
| COc1ccccc1C(=O)N/N=C/c1ccccc1O [CHEMBL2382037] | Inactive | 4.45 |  |  |
| CCc1nnc(N2C(=O)C3C4C=CC(C4)C3C2=O)s1 (stereo not shown) [CHEMBL1255760] | Inactive | 4.00 |  |  |
| Cc1cccc2cc(C3CC(c4sccc4Cl)=NN3)c(Cl)nc12 (stereo not shown) [CHEMBL2236129] |  |  | Active | 5.63 |
| NCCOc1cc(C(=O)Nc2cc(OCCN)c3ccccc3n2)nc(C(=O)Nc2cc(OCCN)c3ccccc3n2)c1 [CHEMBL2349416] |  |  | Active | 5.30 |
| CCCCOc1ccc(-c2nc3ccccc3[nH]2)cc1 [CHEMBL531335] |  |  | Active | 5.61 |
| CC1=CCC[C@@]2(C)CC3=C(C[C@@H]12)C(=O)C=CC3=O [CHEMBL255103] | Inactive | 4.77 |  |  |
| CCN1CSC(=S)N(CC(=O)O)C1 [CHEMBL4294782] | Inactive | 4.34 |  |  |
| COc1ccccc1-c1nnc(-c2ccc(C(=O)N/N=C/c3ccccc3Cl)cc2)o1 [CHEMBL4088386] | Inactive | 4.54 |  |  |
| CCOC(=O)c1ccc(-c2nc3ccccn3c2-c2ccccc2)cc1 [CHEMBL2151879] | Inactive | 4.40 |  |  |
| CCc1ccc(Nc2ncnc3ccc([N+](=O)[O-])cc23)cc1 [CHEMBL3759644] | Inactive | 4.42 |  |  |
| CC(=O)C1=C(C)NC(=O)NC1c1ccccc1 (stereo not shown) [CHEMBL1496818] |  |  | Active | 5.58 |
| Cc1nc(-c2ccccn2)nc(N2CCC(Cc3ccccc3)C2)c1Cl (stereo not shown) [CHEMBL474899] | Active | 5.05 |  |  |
| Cc1ccc2cc(C3CC(c4cc(Cl)sc4Cl)=NN3)c(Cl)nc2c1 (stereo not shown) [CHEMBL2236142] |  |  | Active | 5.75 |
| COc1ccccc1-c1nnc(-c2ccc(C(=O)N/N=C/c3cccnc3)cc2)o1 [CHEMBL4090822] | Inactive | 4.33 |  |  |
| CCN(CC)CCCc1ccc(Nc2c3ccccc3nc3ccccc23)cc1 [CHEMBL89519] |  |  | Active | 6.52 |
| Cc1ccc2nc(CCC3CCCCC3)[nH]c2c1 [CHEMBL1255797] | Inactive | 4.63 |  |  |
| COc1ccccc1-c1nnc(-c2ccc(C(=O)N/N=C/c3cc(O)ccc3O)cc2)o1 [CHEMBL4059674] |  |  | Active | 5.35 |
| Nc1ccc(Nc2c3ccccc3nc3ccccc23)cn1 [CHEMBL84678] |  |  | Active | 5.41 |

| SMILES | Outcome [1, 3] | pIC50 Value [2, 4] | Outcome [1, 5] | pIC50 Value [2, 6] |
| --- | --- | --- | --- | --- |
| Cc1cccc2cc(C3CC(c4ccc(Cl)s4)=NN3)c(Cl)nc12 (stereo not shown) [CHEMBL2236130] |  |  | Active | 5.68 |
| CCCCCNCc1ccc(Nc2c3ccccc3nc3ccccc23)cc1 [CHEMBL89683] |  |  | Active | 5.70 |
| O=C(/C=C/c1ccc(-n2ccnc2)cc1)c1ccc(I)cc1 [CHEMBL570445] |  |  | Active | 5.64 |
| COc1cc(OC)c2c(C)[n+](-c3ccc(Cl)cc3)c(C)cc2c1.F[B-](F)(F)F [CHEMBL481566] | Inactive | 4.72 |  |  |
| CCN1CN(CC(=O)O)CSC1=S [CHEMBL4284377] | Inactive | 4.48 |  |  |
| Fc1ccc(-c2nc3c(NCCN4CCOCC4)nccn3c2-c2ccncc2)cc1 [CHEMBL3634368] | Inactive | 4.78 |  |  |
| O=C(/C=C/c1ccc(-n2ccnc2)cc1)c1cccc(O)c1 [CHEMBL571179] |  |  | Active | 5.48 |
| COc1ccccc1C(=O)N/N=C/c1cccnc1 [CHEMBL2382042] |  |  | Active | 5.71 |
| Cn1cc(C=Nc2ccccc2)c2ccccc21 [CHEMBL2071552] |  |  | Active | 5.49 |
| CC[C@H](CO)Nc1nc(NCc2ccccc2O)c2ncn(C(C)C)c2n1 [CHEMBL1094304] | Inactive | 4.33 |  |  |
| Clc1cc(Cl)cc(-c2nc3ccccn3c2-c2ccccc2)c1 [CHEMBL2151989] | Inactive | 4.41 |  |  |
| CC1=C(C(=O)Nc2ccc(C(=O)/C=C/c3ccc(O)cc3)cc2)C(c2ccc(C)cc2)NC(=S)N1 (stereo not shown) [CHEMBL3786661] |  |  | Active | 5.96 |
| COc1ccc(-c2ccc(C(F)(F)F)cc2)c2c1C(C)=N[C@H](C)C2 [CHEMBL1278172] | Inactive | 4.00 |  |  |
| CC(=O)C1=C(C)NC(=S)NC1c1ccccc1 (stereo not shown) [CHEMBL2359517] |  |  | Active | 5.50 |
| C[C@]12CC[C@H](O)C[C@@H]1CC[C@@H]1[C@@H]2CC[C@@]2(C)[C@H]1CC[C@@H]2[C@@](C)(O)c1ccncc1 [CHEMBL1214241] | Inactive | 4.92 |  |  |
| O=C(CN1CCOCC1)Nc1ccc2ncnc(Nc3ccc(OCc4cccc(F)c4)c(Cl)c3)c2c1 [CHEMBL3637894] | Inactive | 4.91 |  |  |
| C/C=C/C=C/C=C/c1nc2ccccc2n2cccc12 [CHEMBL3260218] |  |  | Active | 5.92 |
| COc1ccccc1-c1nnc(-c2ccc(C(=O)N/N=C/c3ccccc3C)cc2)o1 [CHEMBL4072556] | Inactive | 4.47 |  |  |
| Cn1cc(C2N(c3ccccc3)C(=O)C2(c2ccccc2)c2ccccc2)c2ccccc21 (stereo not shown) [CHEMBL2071560] |  |  | Active | 5.85 |
| O=C(/C=C/c1ccc(-n2ccnc2)cc1)c1ccc(Br)cc1 [CHEMBL570693] |  |  | Active | 5.61 |
| O=CN/N=C/c1ccccc1O [CHEMBL1172261] | Inactive | 3.84 |  |  |
| COc1cc(C)cc2c1C(=O)C=C(c1c(C)c(OC)c3ccc(O)c(OC)c3c1O)C2=O [CHEMBL2071223] |  |  | Active | 9.82 |

| SMILES | Outcome [1, 3] | pIC50 Value [2, 4] | Outcome [1, 5] | pIC50 Value [2, 6] |
| --- | --- | --- | --- | --- |
| COC(=O)c1ccc(/C=N/NC(=O)c2ccccc2OC)cc1 [CHEMBL2382031] | Inactive | 4.81 |  |  |
| O=C(c1cccc(Cl)c1)N1CCN(c2nnc(-c3ccc([N+](=O)[O-])o3)s2)CC1 [CHEMBL458527] | Inactive | 4.88 |  |  |
| CCN1CSC(=S)N(CC)C1 [CHEMBL1571763] | Inactive | 4.42 |  |  |
| Cc1ccc(C2=NNC(c3cc4cccc(C)c4nc3Cl)C2)s1 (stereo not shown) [CHEMBL2235720] |  |  | Active | 5.58 |
| O=C(/C=C/c1ccc(-n2ccnc2)cc1)c1c(Cl)cccc1Cl [CHEMBL571070] |  |  | Active | 5.71 |
| CCCCOc1ccc(-c2nc3cc([N+](=O)[O-])ccc3[nH]2)cc1 [CHEMBL2297903] |  |  | Active | 5.61 |
| CN(C)c1nccn2c(-c3ccncc3)c(-c3ccc(F)cc3)nc12 [CHEMBL3634367] | Active | 5.19 |  |  |
| N#Cc1ccc(N2CCN(c3nnc(-c4ccc([N+](=O)[O-])o4)s3)CC2)cc1 [CHEMBL1783198] | Inactive | 3.98 |  |  |
| CN(C)c1nccn2c(I)c(-c3ccccc3)nc12 [CHEMBL3634358] | Active | 5.17 |  |  |
| CC(C)(O)[C@@H]1CC[C@](C)([C@H]2[C@@H](O)C[C@@]3(C)[C@@H]4C[C@H](O)[C@H]5C(C)(C)[C@@H](O[C@@H]6OC[C@@H](O)[C@H](O)[C@H]6O)CC[C@@]56C[C@@]46CC[C@]23C)O1 [CHEMBL500607] | Inactive | 4.25 |  |  |
| CC1=C2C(=O)c3c(OC(=O)c4ccc(Br)cc4)ccc(OC(=O)c4ccc(Br)cc4)c3CC2(C)CCC1=O (stereo not shown) [CHEMBL255868] | Inactive | 4.43 |  |  |
| CC(C)(C)C(=O)Oc1ccc(-c2c(-c3ccccc3)nc3ccccn23)cc1 [CHEMBL2151861] | Active | 5.15 |  |  |
| Cc1ccc(N2NC(=O)/C(=C/c3cc4c(cc3Cl)OCO4)C2=O)cc1C [CHEMBL1256889] | Inactive | 4.52 |  |  |
| COCCOC(=O)C1=C(C)NC(C)=C(C(=O)OC(C)C)C1c1cccc([N+](=O)[O-])c1 (stereo not shown) [CHEMBL1428] | Inactive | 4.51 |  |  |
| O/N=C1/c2ccccc2OC(c2ccc(Cl)cc2)C1n1ccnc1 (stereo not shown) [CHEMBL4083146] |  |  | Active | 6.22 |
| COc1ccc(O)c(/C=N/NC(=O)c2ccc(-c3nnc(-c4ccccc4OC)o3)cc2)c1 [CHEMBL4082571] | Inactive | 4.79 |  |  |
| COC(=O)c1c(O)c(C#N)c2n(c1=O)CCc1cc(OC)c(OC)cc1-2 [CHEMBL1256930] | Inactive | 4.28 |  |  |
| Cc1cc(C)nc(SCc2nn3c(-c4ccccc4)nnc3s2)n1 [CHEMBL1256856] | Inactive | 4.00 |  |  |
| CCCN1CSC(=S)N(CC(=O)O)C1 [CHEMBL4282164] | Inactive | 4.16 |  |  |
| CN(C)c1ccc(Nc2c3ccccc3nc3ccccc23)cc1 [CHEMBL34941] |  |  | Active | 6.05 |
| CCC/C=C/C=C/c1nc2ccc(OC)cc2n2cccc12 [CHEMBL3260212] | Active | 5.13 |  |  |
